One test deals with T1, JAK-3 (Homo sapiens, UniProt P52333).
T1 sequence (P52333 1-1124): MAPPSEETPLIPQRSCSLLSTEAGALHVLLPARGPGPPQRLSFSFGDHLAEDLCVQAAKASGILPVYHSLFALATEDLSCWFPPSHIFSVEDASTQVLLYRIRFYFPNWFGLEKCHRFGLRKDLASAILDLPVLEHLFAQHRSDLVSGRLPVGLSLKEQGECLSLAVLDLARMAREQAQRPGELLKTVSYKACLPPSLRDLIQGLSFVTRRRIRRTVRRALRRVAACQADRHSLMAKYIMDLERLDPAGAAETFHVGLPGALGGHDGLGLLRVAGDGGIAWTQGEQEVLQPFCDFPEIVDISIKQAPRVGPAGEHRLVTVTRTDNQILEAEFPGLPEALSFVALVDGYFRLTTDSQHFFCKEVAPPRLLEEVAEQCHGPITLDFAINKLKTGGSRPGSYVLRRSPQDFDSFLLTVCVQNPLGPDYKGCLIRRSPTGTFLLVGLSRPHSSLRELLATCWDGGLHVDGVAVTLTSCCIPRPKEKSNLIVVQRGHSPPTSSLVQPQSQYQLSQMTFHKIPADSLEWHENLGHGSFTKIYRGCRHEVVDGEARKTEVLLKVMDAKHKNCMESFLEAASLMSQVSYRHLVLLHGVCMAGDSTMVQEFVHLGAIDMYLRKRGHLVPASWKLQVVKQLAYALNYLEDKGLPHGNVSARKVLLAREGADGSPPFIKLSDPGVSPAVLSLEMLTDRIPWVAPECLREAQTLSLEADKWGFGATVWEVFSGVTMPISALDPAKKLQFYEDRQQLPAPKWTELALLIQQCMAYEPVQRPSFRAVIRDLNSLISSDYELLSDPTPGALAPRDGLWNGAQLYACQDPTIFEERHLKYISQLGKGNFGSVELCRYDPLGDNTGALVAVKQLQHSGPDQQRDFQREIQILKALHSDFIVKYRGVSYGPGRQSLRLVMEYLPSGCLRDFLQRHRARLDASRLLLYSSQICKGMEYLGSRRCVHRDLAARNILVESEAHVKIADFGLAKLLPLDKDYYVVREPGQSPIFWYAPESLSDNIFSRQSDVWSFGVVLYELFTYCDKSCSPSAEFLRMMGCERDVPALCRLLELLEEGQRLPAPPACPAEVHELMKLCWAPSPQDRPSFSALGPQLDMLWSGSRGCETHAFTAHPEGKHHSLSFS
The test is described as follows: JAK-3 inhibition assay. The test is classed as biochemical. The protocol: Compounds were screened for their ability to inhibit JAK using the assay shown below. Reactions were carried out in a kinase buffer containing 100 mM HEPES (pH 7.4), 1 mM DTT, 10 mM MgCl2, 25 mM NaCl, and 0.01% BSA.
Substrate concentrations in the assay were 5 μM ATP (200 μCi/μmole ATP) and 1 μM poly(Glu)4Tyr. Reactions were carried out at 25° C. and 1 nM JAK-3.
To each well of a 96 well polycarbonate plate was added 1.5 μL of a candidate JAK-3 inhibitor along with 50 μL of kinase buffer containing 2 μM poly(Glu)4Tyr and 10 μM ATP. This was then mixed and 50 μL of kinase buffer containing 2 nM JAK-3 enzyme was added to start the reaction. After 20 minutes at room temperature (25° C.), the reaction was stopped with 50 μL of 20% trichloroacetic acid (TCA) that also contained 0.4 mM ATP. The entire contents of each well were then transferred to a 96 well glass fiber filter plate using a TomTek Cell Harvester. After washing, 60 μL of scintillation fluid was added and ^33P incorporation detected on a Perkin Elmer TopCount. After removing the mean background values for all of the data points, the data were fit using Prism software to obtain a Ki value (app).

Another test concerns the target JAK-2 (Homo sapiens, UniProt O60674). The test is described as follows: JAK-2 inhibition assay. The test is classed as biochemical.

Sequence of JAK-2 (O60674 whole entry): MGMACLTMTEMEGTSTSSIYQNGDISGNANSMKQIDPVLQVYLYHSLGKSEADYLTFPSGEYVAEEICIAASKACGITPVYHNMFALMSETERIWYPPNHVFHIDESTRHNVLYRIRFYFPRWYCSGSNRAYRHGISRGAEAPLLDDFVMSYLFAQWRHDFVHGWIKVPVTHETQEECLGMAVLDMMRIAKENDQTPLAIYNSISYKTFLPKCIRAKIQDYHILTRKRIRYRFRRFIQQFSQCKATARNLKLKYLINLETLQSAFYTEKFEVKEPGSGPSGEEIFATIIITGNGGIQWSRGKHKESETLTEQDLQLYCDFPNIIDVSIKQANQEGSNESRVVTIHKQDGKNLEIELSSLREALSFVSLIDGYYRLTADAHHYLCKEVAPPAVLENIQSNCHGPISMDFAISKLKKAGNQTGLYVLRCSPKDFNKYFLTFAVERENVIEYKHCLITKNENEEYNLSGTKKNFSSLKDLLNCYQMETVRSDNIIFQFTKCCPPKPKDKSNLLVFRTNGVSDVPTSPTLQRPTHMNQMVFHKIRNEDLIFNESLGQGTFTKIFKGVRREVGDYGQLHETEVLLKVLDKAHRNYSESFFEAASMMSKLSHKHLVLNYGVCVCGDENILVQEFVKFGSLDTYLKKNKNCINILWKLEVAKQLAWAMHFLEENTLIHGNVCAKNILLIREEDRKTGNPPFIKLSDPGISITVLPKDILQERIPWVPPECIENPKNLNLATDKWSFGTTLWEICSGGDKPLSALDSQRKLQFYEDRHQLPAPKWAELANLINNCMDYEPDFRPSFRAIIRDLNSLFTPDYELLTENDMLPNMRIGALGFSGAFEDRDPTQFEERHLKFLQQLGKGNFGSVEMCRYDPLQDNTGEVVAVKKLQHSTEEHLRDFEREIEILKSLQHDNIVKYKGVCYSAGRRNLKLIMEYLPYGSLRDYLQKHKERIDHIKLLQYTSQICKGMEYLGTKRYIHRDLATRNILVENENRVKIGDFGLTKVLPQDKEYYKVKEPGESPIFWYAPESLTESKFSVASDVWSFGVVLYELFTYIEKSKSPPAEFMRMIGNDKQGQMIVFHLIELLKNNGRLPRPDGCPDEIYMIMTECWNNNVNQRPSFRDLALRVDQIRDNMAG

Take `c1ccc(COCC2Nc3ccccc3-c3ccnc4[nH]cc2c34)cc1` (stereo not drawn) [Compound 1]: the Ki (in general, the dissociation constant of the complex between target and ligand, obtained from inhibition or displacement) on JAK-3 fell in the range of 250 to 2500 nM. On to `c1ccc(COCC2Nc3ccccc3-c3ncnc4[nH]cc2c34)cc1` (stereo not drawn) [Compound 2], for which the Ki on JAK-3 and on JAK-2 was above 2500 nM in each case.

As for `c1ccc(C2Nc3ccccc3-c3ncnc4[nH]cc2c34)cc1` (stereo not drawn) [Compound 3], the Ki at JAK-3 is 250 to 2500 nM; at JAK-2, above 2500 nM. On to `FC(F)(F)C1Nc2ccccc2-c2ncnc3[nH]cc1c23` (stereo not drawn) [Compound 4], for which the Ki at JAK-3 and on JAK-2 was above 2500 nM each time. Regarding `c1ccc(C2Nc3ccccc3-c3ccnc4[nH]cc2c34)cc1` (stereo not drawn) [Compound 5], the Ki at JAK-3 was in the range of 250 to 2500 nM. On the same count and under the same terms, in the case of `CC(C)(C)C1Nc2ccccc2-c2ccnc3[nH]cc1c23` (stereo not drawn) [Compound 6] it was 250 to 2500 nM.

As to `Fc1ccccc1C1Nc2ccccc2-c2ccnc3[nH]cc1c23` (stereo not drawn) [Compound 7], the Ki at JAK-3 was 250 to 2500 nM; at JAK-2, below 250 nM.

Turning to `CCOC(=O)C1Nc2ccccc2-c2ccnc3[nH]cc1c23` (stereo not drawn) [Compound 8], the Ki at JAK-3 and at JAK-2 was 250 to 2500 nM in each case.

As for `COc1ccccc1C1Nc2ccccc2-c2ccnc3[nH]cc1c23` (stereo not drawn) [Compound 9], the Ki at JAK-3 and at JAK-2 was 250 to 2500 nM each time. Regarding `c1ccc2c(c1)NC(C1CCCCC1)c1c[nH]c3nccc-2c13` (stereo not drawn) [Compound 10], the Ki on JAK-3 is above 2500 nM. As for `Fc1cccc(C2Nc3ccccc3-c3ccnc4[nH]cc2c34)c1` (stereo not drawn) [Compound 11], the Ki was 250 to 2500 nM on JAK-3 and below 250 nM on JAK-2.

`Fc1ccc(C2Nc3ccccc3-c3ccnc4[nH]cc2c34)cc1` (stereo not drawn) [Compound 12]: the Ki at JAK-3 and at JAK-2 was 250 to 2500 nM in each case. As to `c1ccc2c(c1)NCc1c[nH]c3nccc-2c13` [Compound 13], the Ki at JAK-3 and at JAK-2 was 250 to 2500 nM throughout. For the compound `CCC1Nc2ccccc2-c2ccnc3[nH]cc1c23` (stereo not drawn) [Compound 14], on JAK-3, the Ki lay in the range of 250 to 2500 nM. Same read-out and setting: in the case of `CC(C)CC1Nc2ccccc2-c2ccnc3[nH]cc1c23` (stereo not drawn) [Compound 15] it was above 2500 nM; in that of `CC(C)C1Nc2ccccc2-c2ccnc3[nH]cc1c23` (stereo not drawn) [Compound 16], above 2500 nM.

In the case of `Clc1ccccc1C1Nc2ccccc2-c2ccnc3[nH]cc1c23` (stereo not drawn) [Compound 17], the Ki at JAK-3 and at JAK-2 was 250 to 2500 nM each time. As for `Fc1cccc(F)c1C1Nc2ccccc2-c2ccnc3[nH]cc1c23` (stereo not drawn) [Compound 18], the Ki is 250 to 2500 nM at JAK-3 and below 250 nM at JAK-2. With `FC(F)(F)c1ccccc1C1Nc2ccccc2-c2ccnc3[nH]cc1c23` (stereo not drawn) [Compound 19], the Ki on JAK-3 and at JAK-2 was 250 to 2500 nM in each case. In the case of `Oc1ccccc1C1Nc2ccccc2-c2ccnc3[nH]cc1c23` (stereo not drawn) [Compound 20], the Ki on JAK-3 and at JAK-2 was 250 to 2500 nM throughout.

Turning to `Brc1ccccc1C1Nc2ccccc2-c2ccnc3[nH]cc1c23` (stereo not drawn) [Compound 21], the Ki at JAK-3 and at JAK-2 was 250 to 2500 nM throughout. As for `c1ccc2c(c1)NC(c1ccc3c(c1)OCO3)c1c[nH]c3nccc-2c13` (stereo not drawn) [Compound 22], the Ki was 250 to 2500 nM at JAK-3 and below 250 nM on JAK-2. In the same order, the values of `O=C(O)C1Nc2ccccc2-c2ccnc3[nH]cc1c23` (stereo not drawn) [Compound 23] are 250 to 2500 nM and 250 to 2500 nM. Turning to `c1ccc(CC2Nc3ccccc3-c3ccnc4[nH]cc2c34)cc1` (stereo not drawn) [Compound 24], the Ki on JAK-3 fell in the range of 250 to 2500 nM. For `Fc1cccc(C2Nc3ccccc3-c3ccnc4[nH]cc2c34)c1F` (stereo not drawn) [Compound 25], the Ki was 250 to 2500 nM on JAK-3 and below 250 nM on JAK-2.

For the compound `Fc1ccc(C2Nc3ccccc3-c3ccnc4[nH]cc2c34)c(F)c1` (stereo not drawn) [Compound 26], the inhibition constant (Ki) was 250 to 2500 nM on JAK-3 and below 250 nM on JAK-2.

On to `Fc1ccc(F)c(C2Nc3ccccc3-c3ccnc4[nH]cc2c34)c1` (stereo not drawn) [Compound 27], for which the Ki at JAK-3 was at most 250 nM; at JAK-2, below 250 nM. Regarding `Fc1cc(F)cc(C2Nc3ccccc3-c3ccnc4[nH]cc2c34)c1` (stereo not drawn) [Compound 28], the Ki on JAK-3 and on JAK-2 was 250 to 2500 nM each time.

The compound `Fc1ccc(C2Nc3ccccc3-c3ccnc4[nH]cc2c34)c(F)c1F` (stereo not drawn) [Compound 29] came in with a Ki at JAK-3 of 250 to 2500 nM. Regarding `Fc1ccc(F)c(C2Nc3ccccc3-c3ccnc4[nH]cc2c34)c1F` (stereo not drawn) [Compound 30], the Ki was at most 250 nM on JAK-3 and below 250 nM at JAK-2.

In the case of `Fc1cc(F)c(C2Nc3ccccc3-c3ccnc4[nH]cc2c34)cc1F` (stereo not drawn) [Compound 31], the inhibition constant (Ki) at JAK-3 was 250 to 2500 nM; at JAK-2, below 250 nM. Consider `Fc1ccc(C2Nc3ccccc3-c3ccnc4[nH]cc2c34)c(Cl)c1` (stereo not drawn) [Compound 32], for which the Ki was above 2500 nM at JAK-3 and 250 to 2500 nM on JAK-2. In the same order, the values of `Fc1cccc(Cl)c1C1Nc2ccccc2-c2ccnc3[nH]cc1c23` (stereo not drawn) [Compound 33] are 250 to 2500 nM and 250 to 2500 nM.

Consider `Fc1cccc(C(F)(F)F)c1C1Nc2ccccc2-c2ccnc3[nH]cc1c23` (stereo not drawn) [Compound 34], for which the inhibitory constant (Ki) at JAK-3 and on JAK-2 was 250 to 2500 nM each time. On to `O=[N+]([O-])c1ccccc1C1Nc2ccccc2-c2ccnc3[nH]cc1c23` (stereo not drawn) [Compound 35], for which the Ki at JAK-3 and at JAK-2 was 250 to 2500 nM each time.

`Fc1ncccc1C1Nc2ccccc2-c2ccnc3[nH]cc1c23` (stereo not drawn) [Compound 36]: the Ki at JAK-3 and at JAK-2 was 250 to 2500 nM each time. For the compound `c1ccc(C2Nc3ccccc3-c3ccnc4[nH]cc2c34)nc1` (stereo not drawn) [Compound 37], the Ki at JAK-3 and on JAK-2 was above 2500 nM in each case. Take `c1cncc(C2Nc3ccccc3-c3ccnc4[nH]cc2c34)c1` (stereo not drawn) [Compound 38]: the Ki at JAK-3 and at JAK-2 was 250 to 2500 nM in each case. For the compound `Fc1cc(C2Nc3ccccc3-c3ccnc4[nH]cc2c34)ccc1Cl` (stereo not drawn) [Compound 39], the Ki was 250 to 2500 nM at JAK-3 and below 250 nM at JAK-2. At JAK-3, `OCCCCC1Nc2ccccc2-c2ccnc3[nH]cc1c23` (stereo not drawn) [Compound 59] had a Ki above 2500 nM. At JAK-3, `Oc1ccc(C2Nc3ccccc3-c3ccnc4[nH]cc2c34)cc1` (stereo not drawn) [Compound 65] yielded a Ki of at most 250 nM. In the case of `Oc1ccc(C2Nc3ccccc3-c3ccnc4[nH]cc2c34)cc1Br` (stereo not drawn) [Compound 77], at JAK-3, the Ki is at most 250 nM. On the same count and under the same terms, in the case of `O=C(O)c1ccc(C2Nc3ccccc3-c3ccnc4[nH]cc2c34)cc1` (stereo not drawn) [Compound 88] it was above 2500 nM. The same measure, in the same setting: the result for `CNC(=O)c1ccc(C2Nc3ccccc3-c3ccnc4[nH]cc2c34)cc1` (stereo not drawn) [Compound 91] reads above 2500 nM; that for `COC(=O)C1(c2ccc([N+](=O)[O-])cc2)Nc2ccccc2-c2ccnc3[nH]cc1c23` (stereo not drawn) [Compound 98], 250 to 2500 nM. `COC(=O)C1(c2ccc(O)cc2)Nc2ccccc2-c2ccnc3[nH]cc1c23` (stereo not drawn) [Compound 103] displayed a Ki on JAK-3 of at most 250 nM. The same measure, in the same setting: in the case of `Oc1ccc(C2Nc3ccccc3-c3ccnc4[nH]cc2c34)cc1F` (stereo not drawn) [Compound 105] it was at most 250 nM; in that of `Oc1ccc(C2Nc3ccccc3-c3ccnc4[nH]cc2c34)c(F)c1` (stereo not drawn) [Compound 107], at most 250 nM; in that of `Oc1ccc(C2Nc3ccccc3-c3ncnc4[nH]cc2c34)cc1F` (stereo not drawn) [Compound 116], at most 250 nM. On the same count and under the same terms, in the case of `Oc1ccc(C2Nc3ccccc3-c3ncnc4[nH]cc2c34)c(F)c1` (stereo not drawn) [Compound 118] it was at most 250 nM. At JAK-3, `CS(=O)(=O)Nc1ccc(C2Nc3ccccc3-c3ccnc4[nH]cc2c34)cc1` (stereo not drawn) [Compound 123] gave a Ki above 2500 nM.

`O=C1Nc2ccccc2-c2ccnc3[nH]cc(c23)C1c1ccc(O)cc1` (stereo not drawn) [Compound 125] registered a Ki on JAK-3 of at most 250 nM.

As for `OCc1ccc(C2Nc3ccccc3-c3ccnc4[nH]cc2c34)cc1` (stereo not drawn) [Compound 154], the Ki at JAK-3 is at most 250 nM. Still for that read-out and setting: the result for `COC(=O)CC1Nc2ccccc2-c2ccnc3[nH]cc1c23` (stereo not drawn) [Compound 156] reads 250 to 2500 nM.

These data come from patent US8163732B2, “Tricyclic heteroaryl compounds useful as inhibitors of Janus kinase” (Vertex Pharmaceuticals Incorporated, priority 2005, dated 2012).
